These results are taken from patent publication US20240245629A1, “USE OF ATOVAQUONE AND PROGUANIL FOR REDUCING STEROID USE, ALL-CAUSE HOSPITALIZATION, OR ADVANCED THERAPY USE IN A SUBJECT DIAGNOSED WITH INFLAMMATORY BOWEL DISEASE, CROHN'S DISEASE, OR ULCERATIVE COLITIS” (Elevaid Therapeutics, Inc., priority 2020, published 2024).

The conditions of series [1]: cited from earlier work.
A further series deals with human neutrophils. The settings on record: by preventing up-regulation of CD11b; cited from earlier work.
The test system of series [2] is DSS-induced murine colitis. The settings on record: cited from earlier work.
Series [3] relates to patients with IBD, CD, and UC. In words: Retrospective propensity-matched cohort study (TriNetX), secondary analysis: A/P vs HAV, HCQ, MES. The following applies: propensity score matched, within 1 year of exposure. In kind it is in vivo, human. As to the method: Using a multi-institutional database, after 1:1 propensity score matching, we identified adult all-cause IBD patients between 2000 and 2019. […] Outcomes were steroid use, hospitalization, or advanced therapy use within 1 year of exposure. The experiments were repeated in Crohn's disease (CD) and ulcerative colitis (UC) patient cohorts. […]
A retrospective cohort study was performed using a de-identified multi-institutional database with 80 contributing healthcare organizations (HCO), including over 113 million patients (TriNetX Research Network, Cambridge, Massachusetts, date of data access Dec. 7, 2023; IRB exempt). TriNetX regularly aggregates clinical data directly from participating HCOs, primarily in the United States, including extensive data quality and accuracy assessment. Institutional information relating to participating HCOs is also de-identified, however, a typical HCO includes a large academic healthcare center with prevalent capabilities for inpatient services, outpatient services, and specialty care services.
A second analysis was performed to identify all adult patients (aged≥18 years) diagnosed with IBD, including Crohn's disease (CD, ICD-10: K50) and/or ulcerative colitis (UC, ICD-10: K51), between Jan. 1, 2000, and Dec. 31, 2019. […] The index event for all groups was the time of the patient's first prescription.
If there were multiple prescriptions, the index event was defined as the date of the first prescription. Information on duration and dosage was not available.
The outcomes of steroid use (yes/no), hospitalization (yes/no), and advanced therapy use (yes/no) were chosen as they are generally regarded as surrogate markers for IBD activity. Steroid use was defined as a prescription for prednisone, methylprednisolone, or budesonide. All-cause hospitalization was used because TriNetX could not specify a cause for hospitalization. Advanced therapy use was defined as a prescription for adalimumab, certolizumab pegol, golimumab, infliximab, vedolizumab, ustekinumab, tofacitinib, azathioprine, mercaptopurine, or methotrexate. Information on the duration and dosage of outcome drugs was also not available.
This created a potential for bias in that many patients may experience one or more of the measured outcomes (steroid use, hospitalization, or advanced therapy use) within the first year of their diagnosis as standard of care. Indexing those patients to a time other than the time of their original diagnosis, for example, to a time when they received a prescription for a different medication, would mitigate that bias.
Comparators that would not only mitigate the index bias, but also address other potential biases, were specifically chosen. […] HAV is also frequently prescribed for travelers, and there happens to be a high degree of geographic overlap among hepatitis A and malaria-endemic regions.
We performed 1:1 greedy nearest neighbor propensity score matching (caliper of 0.1 standard deviations) to balance cohorts on age, sex, race, comorbid conditions (including cardiovascular, pulmonary, rheumatologic, and renal co-morbidities included in the Charlson Comorbidity Index), presence of prior hospitalization, and use of steroids and IBD advanced therapy (as defined above) to control for baseline disease severity and prior presence of any of the measured outcomes (Table 1, Supplemental Table 1). Differences between groups were calculated using either an independent t-test or a chi-square test as appropriate. Estimates of odds ratios (OR), and 95% confidence intervals (CI) were used to describe the outcome risks. P-values of α<0.05 were considered statistically significant.

In a further series the test system is murine colitis. The following applies: mouse, in vivo, cited from earlier work.
Series [4] relates to patients with ulcerative colitis. The following applies: small human trial; cited from earlier work.
Series [5] deals with ulcerative colitis patient.
The subject of another series is UC patients. The settings on record: 60 UC patients; cited from earlier work.
Where [6] appears, read: Crohn's disease, n = 381 per cohort, A/P vs HCQ.
The mark [7] stands for this setting: all-cause IBD, n = 947 per cohort, A/P vs HCQ.
The mark [8] stands for this setting: ulcerative colitis, n = 405 per cohort, A/P vs HCQ.
Setting [9] is: Crohn's disease, n = 313 per cohort, A/P vs MES.
The mark [10] stands for this setting: all-cause IBD, n = 624 per cohort, A/P vs MES.
Where [11] appears, read: ulcerative colitis, n = 260 per cohort, A/P vs MES.

“Also recorded” adds a separate entry of the source. Where a name gives a salt, the structure may show the parent alone. Read-outs that look alike come from different tables or passages of the source.

Turning to `O=C1C(O)=C([C@H]2CC[C@H](c3ccc(Cl)cc3)CC2)C(=O)c2ccccc21` [Atovaquone, trans-2-[4-(4-chlorophenyl)cyclohexyl]-3-hydroxy-1,4-naphthalenedione], the solubility in water result in series [1] is “practically insoluble”. Further, in the series on human neutrophils, the human neutrophil chemotaxis result is on record as “directly suppressed”. The “colitis (DSS-induced murine / experimental)” value in series [2] (by reducing mucosal neutrophil accumulation) is “attenuates; also recorded: promoted the resolution”. In series [2] (mouse, in vivo), the “S100A9 and CD11b expression on neutrophil surfaces” value was “reduction”.

Consider `CCN(CCO)CCCC(C)Nc1ccnc2cc(Cl)ccc12` (stereo not drawn) [HCQ, hydroxychloroquine], for which the “all-cause hospitalization, number of patients” value (“all-cause hospitalization” for short) in series [3] (setting [6]) is recorded as 43; in series [3] (setting [7]) it was 118; in series [3] (setting [8]) it was 60. Further, the “steroid use, number of patients” value in series [3] (setting [6]) was determined as 194; in series [3] (setting [7]), 485; in series [3] (setting [8]) it was 211. Moreover, the results for the “advanced therapy use, number of patients” value in series [3] (setting [7]) and in series [3] (setting [8]) were 277 and 99, respectively. Moreover, the “murine colitis and associated cancer” value in the series with murine colitis is reported as “showed efficacy; also recorded: attenuate murine colitis”; in the series on murine colitis (listed as Hydroxychloroquine), “decrease the incidence”. In addition, the “efficacy vs placebo in ulcerative colitis” value in series [4] is “failed to demonstrate superiority over placebo”.

As to `Nc1ccc(O)c(C(=O)O)c1` [MES, mesalamine], in series [3] (setting [9]), the “all-cause hospitalization” value was 53 and the “steroid use, number of patients” value was found to be 162. Moreover, in series [3] (setting [10]), the “advanced therapy use, number of patients” value is reported as 182; the “all-cause hospitalization” value stood at 92; the “steroid use, number of patients” value is 307. In series [3] (setting [11]), the “advanced therapy use, number of patients” value came out at 31; the “all-cause hospitalization” value came out at 47; the “steroid use, number of patients” value is 111. For the same compound, the “therapeutic effect on colitis” value in series [5] (4.8 grams generic tablets daily, day 1) is on record as “no therapeutic effect”. In series [5] (in vivo), the adverse event result is listed as “moderate costochondral chest pain”.

Consider `[H]/N=C(\N/C(=N/[H])Nc1ccc(Cl)cc1)NC(C)C` [Proguanil hydrochloride, 1-(4-chlorophenyl)-5-isopropyl-biguanide], for which, in series [1], the solubility in water result is listed as “sparingly soluble”.

Consider `CCN(CC)CCCC(C)Nc1ccnc2cc(Cl)ccc12` (stereo not drawn) [chloroquine], for which, in the series on UC patients, the “adverse events compared to sulfasalazine” value was “fewer”; the “remission and response rates compared to sulfasalazine” value is “similar”.

Turning to `C[C@]12C=CC(=O)C=C1CC[C@@H]1[C@@H]2C(=O)C[C@@]2(C)[C@H]1CC[C@]2(O)C(=O)CO` [prednisone], the colitis symptoms entry in series [5] (40 mg daily, after 7 days) is on record as “no improvement”.

As for `CO[C@H]1/C=C/O[C@@]2(C)Oc3c(C)c(O)c4c(O)c(c5c(nc6cc(C)ccn65)c4c3C2=O)NC(=O)/C(C)=C\C=C\[C@H](C)[C@H](O)[C@@H](C)[C@@H](O)[C@@H](C)[C@H](OC(C)=O)[C@@H]1C` [rifaximin], in series [5] (10-day course, 275 mg TID), the colitis symptoms result is given as “symptoms persisted”.
